Results taken from patent US20090012183A1, “Composition comprising polyphenol” (Conopco, Inc. d/b/a Unilever, priority 2007, published 2009).

Tests used:
rat aorta = conditions: cited from earlier work; for vasorelaxing effect: Chen and Pace Asciak, Gen. Pharmac. 27(2), 363-366 (1996)
[1] = system: 2nd order mesenteric artery side branches; test: Reactivity of isolated arteries: dilator effect during contraction induced by 40 mmol/L K+; set-up: species or system Spontaneously Hypertensive Rats (SHR)
Protocol: Segments of 2nd order mesenteric artery side branches were isolated from 14 weeks old male Spontaneously Hypertensive Rats (SHR). Two stainless-steel wires (diameter 40 μm) were inserted in the lumen of the arterial segments, which were then mounted in organ chambers between an isometric force transducer and a displacement device (Danish Myotechnology by J. P. Trading, Denmark). The organ chambers were filled with Krebs-Ringer bicarbonate solution which was maintained at 37° C. and continuously aerated with 95% O2 and 5% CO2. Before the actual experiments started, arterial segments were stretched to their individual optimal lumen diameter for mechanical performance, i.e. the diameter at which maximal contractile responses to noradrenaline ([…]) were obtained. In each experiment four second order mesenteric resistance arterial segments from one animal were mounted in individual organ chambers and studied in parallel. At the start of the experiments, all four arterial preparations were incubated during 20 min with capsaicin (1 μmol/L) to persistently desensitize sensory-motor nerves and to obtain a stable and considerable contractile response to potassium (K^+, 40 mmol/L). During all the experiments superoxide dismutase (SOD, 5 U/ml) was present, to preserve stability of the metabolites. We tested the effects of the 35 different phenolic compounds using a Plackett-Burman screening design. The experiment consisted of 5 separate saturated 8 run Plackett-burman designs. Each design contained a subset of 7 phenolic compounds (Factors): One of the compounds tested was trans-resveratrol (in this case compound 30). […] In this way, the effects of different exposure times to the mixtures (7, 30 and 90 min) on K+-induced contraction, could be evaluated. […] Effects of increasing concentrations of the solvent and of the mixes (0.1 to 100 umol/L) during contractile responses to 40 mmol/L K+, were calculated as % change of the level of pre-contraction. […]

Row | EC50 ([1]; Rattus norvegicus, isolated SHR mesenteric resistance arteries precontracted with 40 mmol/L K+, found by comparing mixtures (Plackett-Burman design), corrected for DMSO solvent, read-out: EC50 of dilation of the arteries) [µM] | SMILES | vasorelaxing effect (rat aorta) | relaxation of the rat aorta (rat aorta; Fitzpatrick et al, Am. J. physiol. 265, H774-H778, 1993) | influence on the dilation of the arteries ([1]; at a low concentration, comparison of different mixtures) | concentration at which the maximum dilatation was obtained ([1]; isolated SHR mesenteric resistance arteries precontracted with 40 mmol/L K+, mixtures tested 0.1-100 umol/L) [µM]
1 |  | Oc1ccc(C=Cc2cc(O)cc(O)c2)cc1 [resveratrol] | vasorelaxing effect | did not relax |  | 
2 |  | O=c1c(O)c(-c2ccc(O)c(O)c2)oc2cc(O)cc(O)c12 [quercitin] | vasorelaxing effect |  |  | 
3 | 11.6 | Oc1ccc(C=Cc2cc(O)cc(O)c2)cc1 [trans-resveratrol, 3,5,4′-trihydroxystilbene] |  |  | significant influence | 100
